Experimental data from ChEMBL document CHEMBL1156187, “Discovery of a selective small-molecule melanocortin-4 receptor agonist with efficacy in a pilot study of sexual dysfunction in humans” (J Med Chem, 2010).

How the values were obtained:
[1] = Lipophilicity, log D at pH 7.4; format: physicochemical; settings: buffer
Melanocortin receptor 4 [2] = molecular target: T1, Melanocortin receptor 4 (Homo sapiens, UniProt P32245); assay: Agonist activity at human recombinant MC4 receptor expressed in CHO cells by cAMP responsive beta lactamase reporter gene assay; format: functional, cell-based
T1 sequence (P32245 whole entry): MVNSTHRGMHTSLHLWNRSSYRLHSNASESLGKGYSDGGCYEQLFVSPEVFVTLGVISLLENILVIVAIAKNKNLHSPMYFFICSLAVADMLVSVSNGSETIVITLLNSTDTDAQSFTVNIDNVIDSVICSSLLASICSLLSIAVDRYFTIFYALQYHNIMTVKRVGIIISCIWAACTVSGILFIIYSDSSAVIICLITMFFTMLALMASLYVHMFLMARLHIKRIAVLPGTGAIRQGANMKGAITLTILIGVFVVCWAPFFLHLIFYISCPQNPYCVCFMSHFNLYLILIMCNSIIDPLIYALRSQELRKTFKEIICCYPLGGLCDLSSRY

[3] = Intrinsic clearance in human liver microsome measured per mg of protein; format: ADME; settings: liver microsomes
Melanocortin receptor 5 [4] = molecular target: T2, Melanocortin receptor 5 (Homo sapiens, UniProt P33032); assay: Agonist activity at human recombinant MC5 receptor expressed in HEK293 cells assessed as cAMP accumulation by beta lactamase reporter gene assay relative to alpha melanocyte-stimulating hormone; format: functional, cell-based
T2 sequence (P33032 whole entry, the tested form may be a part): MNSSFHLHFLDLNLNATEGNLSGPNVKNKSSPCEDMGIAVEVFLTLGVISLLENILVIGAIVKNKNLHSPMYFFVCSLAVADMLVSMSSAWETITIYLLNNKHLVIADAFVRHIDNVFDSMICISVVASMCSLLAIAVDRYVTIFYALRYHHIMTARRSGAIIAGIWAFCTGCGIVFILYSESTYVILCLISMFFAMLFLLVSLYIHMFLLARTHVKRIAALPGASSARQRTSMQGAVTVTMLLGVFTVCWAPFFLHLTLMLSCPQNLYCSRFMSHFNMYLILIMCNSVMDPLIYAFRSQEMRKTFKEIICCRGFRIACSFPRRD

Melanocortin receptor 3 [5] = molecular target: T3, Melanocortin receptor 3 (Homo sapiens, UniProt P41968); assay: Agonist activity at human recombinant MC3 receptor expressed in CHO cells assessed as cAMP accumulation by enzyme fragment complementation assay; format: functional, cell-based
T3 sequence (P41968 whole entry, the tested form may be a part): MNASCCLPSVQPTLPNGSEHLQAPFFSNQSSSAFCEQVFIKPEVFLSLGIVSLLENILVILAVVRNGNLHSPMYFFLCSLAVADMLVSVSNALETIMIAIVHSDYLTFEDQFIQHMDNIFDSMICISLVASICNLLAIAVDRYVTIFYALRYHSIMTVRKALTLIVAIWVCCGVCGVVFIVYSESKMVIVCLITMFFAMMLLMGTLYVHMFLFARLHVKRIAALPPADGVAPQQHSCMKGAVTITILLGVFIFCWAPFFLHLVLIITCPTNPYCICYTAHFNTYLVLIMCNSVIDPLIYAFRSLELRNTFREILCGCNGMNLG

Melanocortin receptor 4 [6] = molecular target: T1, Melanocortin receptor 4; assay: Displacement of [125I]-MT-II from human recombinant MC4 receptor expressed in CHO cells by scintillation counting
Melanocortin receptor 5 [7] = molecular target: T2, Melanocortin receptor 5; assay: Agonist activity at human recombinant MC5 receptor expressed in HEK293 cells assessed as cAMP accumulation by beta lactamase reporter gene assay; format: functional, cell-based
[8] = molecular target: T4, Melanocyte-stimulating hormone receptor (Homo sapiens, UniProt Q01726); assay: Agonist activity at human recombinant MC1 receptor expressed in HEK293 cells assessed as cAMP accumulation by enzyme fragment complementation assay; format: functional, cell-based
Target sequence in this assay (Q01726 whole entry, the tested form may be a part): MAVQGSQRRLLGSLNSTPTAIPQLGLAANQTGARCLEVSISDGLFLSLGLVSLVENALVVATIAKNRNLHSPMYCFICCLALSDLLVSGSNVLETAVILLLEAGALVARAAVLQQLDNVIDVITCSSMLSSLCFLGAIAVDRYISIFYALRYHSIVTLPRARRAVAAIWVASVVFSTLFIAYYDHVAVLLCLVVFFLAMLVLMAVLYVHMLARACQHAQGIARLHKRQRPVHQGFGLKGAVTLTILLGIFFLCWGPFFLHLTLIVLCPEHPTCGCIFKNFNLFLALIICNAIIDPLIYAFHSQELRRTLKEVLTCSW

[9] = molecular target: T4, Melanocyte-stimulating hormone receptor; assay: Agonist activity at human recombinant MC1 receptor expressed in HEK293 cells assessed as cAMP accumulation by enzyme fragment complementation assay relative to alpha melanocyte-stimulating hormone; format: functional, cell-based
Target sequence in this assay (Q01726 whole entry, looked up, the tested form may be a part): as the sequence (Q01726 whole entry, the tested form may be a part) above

Melanocortin receptor 3 [10] = molecular target: T3, Melanocortin receptor 3; assay: Agonist activity at human recombinant MC3 receptor expressed in CHO cells assessed as cAMP accumulation by enzyme fragment complementation assay relative to […]; format: functional, cell-based

| Structure (SMILES) | EC50 (Melanocortin receptor 4 [2]) [nM] | EC50 (Melanocortin receptor 3 [5]) [nM] | Ki (Melanocortin receptor 4 [6]) [nM] | EC50 [8] [nM] | further results |
| --- | --- | --- | --- | --- | --- |
| C[C@@H]1CN(C(=O)[C@@H]2CN(C(C)(C)C)C[C@H]2c2ccc(F)cc2F)C[C@H](C)[C@@]1(O)C1CC1 | 962 |  |  |  | logD [1]: 2.2; microsomal CLint [3]: 14 µL/min/mg |
| C[C@@H]1CN(C(=O)[C@@H]2CN(C(C)(C)C)C[C@H]2c2ccc(F)cc2F)C[C@H](C)[C@@]1(O)c1cccc(C#N)c1 | 644 |  |  |  |  |
| C[C@@H]1CN(C(=O)[C@@H]2CN(C)C[C@H]2c2ccc(F)cc2F)C[C@H](C)[C@@]1(O)c1ccc(F)cc1 | 365 | > 33400 | 346 | > 6150 | Emax (Melanocortin receptor 5 [4]): 100%; EC50 (Melanocortin receptor 5 [7]): 15000 nM |
| C[C@@H]1CN(C(=O)[C@@H]2CN(C(C)(C)C)C[C@H]2c2ccc(F)cc2F)C[C@H](C)[C@@]1(O)c1cccnc1 | 3630 |  |  |  |  |
| CC(C)[C@@]1(O)[C@H](C)CN(C(=O)[C@H]2CN(c3cccnn3)C[C@@H]2c2ccc(F)cc2F)C[C@@H]1C | 89 |  |  |  |  |
| COc1ccc([C@@]2(O)[C@H](C)CN(C(=O)[C@@H]3CN(C(C)(C)C)C[C@H]3c3ccc(F)cc3F)C[C@@H]2C)cc1 | 53 |  |  |  |  |
| C[C@@H]1CN(C(=O)[C@H]2CN(c3cnccn3)C[C@@H]2c2ccc(F)cc2F)C[C@H](C)[C@@]1(O)c1ccccc1 | 111 |  |  |  |  |
| CCN1C[C@@H](C(=O)N2C[C@@H](C)[C@](O)(c3ccc(F)cc3F)[C@@H](C)C2)[C@H](c2ccc(F)cc2F)C1 | 51 |  |  |  |  |
| CCCCN1C[C@H](C(=O)N2C[C@@H](C)[C@](O)(c3ccccc3)[C@@H](C)C2)[C@@H](c2ccc(F)cc2F)C1 | 105 | > 5720 | 233 | 1100 | Emax (Melanocortin receptor 5 [4]): 72%; Emax [9]: 72%; EC50 (Melanocortin receptor 5 [7]): 1430 nM |
| C[C@@H]1CN(C(=O)[C@@H]2CNC[C@H]2c2ccc(F)cc2F)C[C@H](C)[C@@]1(O)c1ccc(F)cc1 | 255 |  |  |  | logD [1]: 1.8; microsomal CLint [3]: 13 µL/min/mg |
| CCN1C[C@@H](C(=O)N2C[C@@H](C)[C@](O)(c3ccccc3)[C@@H](C)C2)[C@H](c2ccc(F)cc2F)C1 | 85 |  |  |  |  |
| C[C@@H]1CN(C(=O)[C@H]2CN(c3cccnn3)C[C@@H]2c2ccc(F)cc2F)C[C@H](C)[C@@]1(O)C1CC1 | 82 | 4130 | 172 | > 16700 | Emax (Melanocortin receptor 3 [10]): 42% |
| CCC[C@@]1(O)[C@H](C)CN(C(=O)[C@@H]2CN(C(C)(C)C)C[C@H]2c2ccc(F)cc2F)C[C@@H]1C | 126 | > 24700 | 844 | 3610 | Emax [9]: 95% |
| C[C@@H]1CN(C(=O)[C@H]2CN(c3cncnc3)C[C@@H]2c2ccc(F)cc2F)C[C@H](C)[C@@]1(O)c1ccccc1 | 117 |  |  |  |  |
| CC(C)N1C[C@@H](C(=O)N2C[C@@H](C)[C@](O)(c3ccc(Cl)cc3)[C@@H](C)C2)[C@H](c2ccc(F)cc2F)C1 | 91 |  |  |  | logD [1]: 3.5; microsomal CLint [3]: 34 µL/min/mg |
| C[C@@H]1CN(C(=O)[C@@H]2CNC[C@H]2c2ccc(F)cc2F)C[C@H](C)[C@@]1(O)c1cccc(F)c1 | 159 |  |  |  |  |
| C[C@@H]1CN(C(=O)[C@H]2CN(c3cccnn3)C[C@@H]2c2ccc(F)cc2F)C[C@H](C)[C@@]1(O)c1ccccc1 | 6 | 490 | 10 | > 3070 | Emax (Melanocortin receptor 3 [10]): 89%; logD [1]: 3.3; EC50 (Melanocortin receptor 5 [7]): > 20000 nM; microsomal CLint [3]: 243 µL/min/mg |
| CCN1C[C@@H](C(=O)N2C[C@@H](C)[C@](O)(c3ccc(F)c(F)c3)[C@@H](C)C2)[C@H](c2ccc(F)cc2F)C1 | 69 |  |  |  |  |
| C[C@@H]1CN(C(=O)[C@@H]2CN(C(C)(C)C)C[C@H]2c2ccc(F)cc2F)C[C@H](C)[C@@]1(O)c1ccc(F)c(F)c1 | 15 |  |  |  | logD [1]: 3.5; microsomal CLint [3]: 22 µL/min/mg |
| CCN1C[C@@H](C(=O)N2C[C@@H](C)[C@](O)(c3cccc(F)c3)[C@@H](C)C2)[C@H](c2ccc(F)cc2F)C1 | 61 | > 13500 | 355 | > 8250 | Emax (Melanocortin receptor 5 [4]): 92%; logD [1]: 2.9; EC50 (Melanocortin receptor 5 [7]): 6410 nM; microsomal CLint [3]: 73 µL/min/mg |
| CCCN1C[C@H](C(=O)N2C[C@@H](C)[C@](O)(c3ccccc3)[C@@H](C)C2)[C@@H](c2ccc(F)cc2F)C1 | 19 |  |  |  |  |
| C[C@@H]1CN(C(=O)[C@H]2CN(c3ccccn3)C[C@@H]2c2ccc(F)cc2F)C[C@H](C)[C@@]1(O)c1ccccc1 | 15 | 71 | 79 | > 16700 | Emax (Melanocortin receptor 5 [4]): 29%; Emax (Melanocortin receptor 3 [10]): 78%; EC50 (Melanocortin receptor 5 [7]): 960 nM |
| C[C@@H]1CN(C(=O)[C@H]2CN(c3ncccn3)C[C@@H]2c2ccc(F)cc2F)C[C@H](C)[C@@]1(O)c1ccccc1 | 243 | > 26700 | 300 | > 10000 | EC50 (Melanocortin receptor 5 [7]): > 11100 nM |
